Where two headings read alike, the source gives them in different places. Where no end group is shown, it is not given here.

The values that follow come from patent publication US6310176A, “Antimicrobially active polypeptides” (SBL Vaccin AB, priority 1996, dated 2001).

Series [1] concerns Bacillus megaterium BM11. The experiment in a line: Antimicrobial inhibition zone assay, B. megaterium. It is filed as cell-based. The note with it: B. megaterium BmII; inhibition zones on agarose plates. Here is the method:
(§1) Antimicrobial assay. The antibacterial activity was tested against Bacillus megaterium BM11, Staphylococcus aureus Cowahl, Streptococcus pyogenes b hemolytic group A, Pseudomonas aeruginosa ATCC 15692, Escherichia coli D21, E. coli D21e7, E. coli D21f1, E. coli D21f2 and E. coli D22, using an inhibition zone assay on LB broth/1% agarose plates seeded with 2×10^5 viable bacteria (Hultmark, D., Engstrom, A., Andersson, K., Steiner, H., Bennich, H. & Boman, H. G. (1983) Insect immunity. Attacin, a family of antibacterial proteins from Hyulophora cecropin, EMBO J. 2, 571-576). Fresh cultures of Candida albicans ATCC 10261 were inoculated in WB broth, pH 6.5, and grown at 37° C. to approximately 0.6 OD600. Before plating, cultures were diluted 300 fold and then incubated overnight at 37° C. in the presence of the test peptide, the concentration of which was established by amino acid analysis. Inhibition zones were measured and the lethal concentration (LC, the lowest concentration that inhibits the growth) was calculated from the diameter of the zones obtained in serial dilutions of the test substance by using the formula given in Hultmark, D., Engstrom, A., Andersson, K., Steiner, H., Bennich, H. & Boman, H. G. (1983) Insect immunity. […] Values are expressed as the mean of at least 5 experiments with a divergence of not more than one dilution step.

Series [2] deals with Staphylococcus aureus Cowan1. Briefly: Antimicrobial inhibition zone assay, S. aureus. It is filed as cell-based. The note with it: inhibition zones on agarose plates. Here is the method: as §1
In series [3] the test system is Escherichia coli D21. Briefly: Antimicrobial inhibition zone assay, E. coli D21. It is filed as cell-based. The note with it: Table 2. The method, then:
as §1, with “step. […]” for “step.”

Series [4] concerns Human red cells. Briefly: Red blood cell lysis. It is filed as cell-based.
Series [5] concerns Bacillus megaterium BM11. The note with it: B. megaterium BmII; cecropin data from Hultmark et al. (1983); cited from earlier work.
For series [6], the system named is Staphylococcus aureus Cowan1. The note with it: S. aureus Cowan1; cecropin data from Hultmark et al. (1983); cited from earlier work.
Series [7] concerns Y. pseudotubercolosis. The note with it: cecropin data from Hultmark et al. (1983); cited from earlier work.
For series [8], the system named is Escherichia coli D21. The note with it: E. coli D21; cecropin data from Hultmark et al. (1983); cited from earlier work.
The test system of series [9] is Human red cells. The note with it: cecropin data from Hultmark et al. (1983); cited from earlier work.

Turning to `CC[C@H](C)[C@H](NC(=O)CN)C(=O)NCC(=O)N[C@@H](C)C(=O)N[C@H](C(=O)N[C@@H](CC(C)C)C(=O)N[C@@H](CCCCN)C(=O)N[C@H](C(=O)N[C@@H](CC(C)C)C(=O)N[C@H](C(=O)N[C@H](C(=O)NCC(=O)N[C@@H](CC(C)C)C(=O)N1CCC[C@H]1C(=O)N[C@@H](C)C(=O)N[C@@H](CC(C)C)C(=O)N[C@H](C(=O)N[C@@H](CO)C(=O)N[C@@H](Cc1c[nH]c2ccccc12)C(=O)N[C@H](C(=O)N[C@@H](CCCCN)C(=O)N[C@@H](CCCNC(=N)N)C(=O)N[C@@H](CCCCN)C(=O)N[C@@H](CCCNC(=N)N)C(=O)N[C@@H](CCC(N)=O)C(=O)N[C@@H](CCC(N)=O)C(N)=O)[C@@H](C)CC)[C@@H](C)CC)[C@@H](C)O)[C@@H](C)O)C(C)C)C(C)C` [Melittin], the Lethal concentration in series [1] amounted to 0.6 µM; in series [2], 0.2 µM; in [3] it was 0.8 µM. In addition, the “Lethal concentration (lytic activity)” value in [4] is 0.9 µM.
In the case of “Cecropin A: cecropin from insect hemolymph (KWKLFKKIEKVGQNIRDGIIKAGPAVAVVGQATQIAK; ends and bridges not checked; UniProt P01507 27-63, looked up)”, the Lethal concentration in [5] was 0.5 µM; in [6] it was over 200 µM; in [7], 0.5 µM; in series [8], 0.3 µM. The “Lethal concentration (lytic activity)” value in series [9] was over 400 µM.
Take FIGSALKVLAGVLPSVISWVKQ-NH2 [MLP]: the “Lethal concentration (lytic activity)” value in series [4] was determined as 0.5 µM.
As for FLPLIGRVLSGIL-NH2 [Temporin A], the “Lethal concentration (lytic activity)” value in [4] is over 120 µM.
As to LLPIVGNLLKSLL-NH2 [Temporin B], the “Lethal concentration (lytic activity)” value in series [4] was over 120 µM.
